Measured values as given in publication PMC4583814 (Nature neuroscience, 2015).

Assays:
Experiment in all cases: CRE-luciferase
Type in all cases: cell-based
Olfr376 = target: T1, Olfr376 (Mus musculus, UniProt Q8VGI2); conditions: Hana3A cells, 4 h, 37°C; agonist
T1 sequence (Q8VGI2 1-317): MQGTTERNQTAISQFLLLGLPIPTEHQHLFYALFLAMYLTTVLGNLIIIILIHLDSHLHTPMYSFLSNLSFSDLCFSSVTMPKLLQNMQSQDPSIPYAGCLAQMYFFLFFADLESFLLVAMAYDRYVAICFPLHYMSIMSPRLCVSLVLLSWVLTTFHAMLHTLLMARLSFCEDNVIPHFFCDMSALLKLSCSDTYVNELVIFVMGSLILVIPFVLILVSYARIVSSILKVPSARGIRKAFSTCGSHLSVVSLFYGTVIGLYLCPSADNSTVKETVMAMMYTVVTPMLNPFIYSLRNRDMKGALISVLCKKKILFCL

Olfr57 = target: T2, Olfr57 (Mus musculus, UniProt Q8VGU7); conditions: Hana3A cells, 4 h, 37°C; agonist
T2 sequence (Q8VGU7 1-319): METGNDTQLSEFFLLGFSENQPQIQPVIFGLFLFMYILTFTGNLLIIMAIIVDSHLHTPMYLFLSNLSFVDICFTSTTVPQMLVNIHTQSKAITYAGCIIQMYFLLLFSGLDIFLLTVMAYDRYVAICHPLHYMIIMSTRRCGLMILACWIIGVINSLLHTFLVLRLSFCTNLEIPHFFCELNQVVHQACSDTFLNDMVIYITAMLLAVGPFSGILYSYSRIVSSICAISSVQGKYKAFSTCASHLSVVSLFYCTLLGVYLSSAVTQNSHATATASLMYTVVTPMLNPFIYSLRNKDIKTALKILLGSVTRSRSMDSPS

Olfr491 = target: T3, Olfr491 (Mus musculus, UniProt Q8VG06); conditions: Hana3A cells, 4 h, 37°C; agonist
T3 sequence (Q8VG06 1-310): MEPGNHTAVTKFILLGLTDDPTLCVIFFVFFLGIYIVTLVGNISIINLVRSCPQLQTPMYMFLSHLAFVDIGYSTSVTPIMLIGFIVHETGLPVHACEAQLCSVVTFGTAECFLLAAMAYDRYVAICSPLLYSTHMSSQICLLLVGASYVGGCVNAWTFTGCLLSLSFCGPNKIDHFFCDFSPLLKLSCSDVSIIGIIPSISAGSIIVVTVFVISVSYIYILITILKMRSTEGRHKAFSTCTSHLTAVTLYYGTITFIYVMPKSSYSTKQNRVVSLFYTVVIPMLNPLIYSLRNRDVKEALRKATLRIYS

Olfr20 = target: T4, Olfr20 (Mus musculus, UniProt Q7TRX9); conditions: Hana3A cells, 4 h, 37°C; agonist
T4 sequence (Q7TRX9 1-314): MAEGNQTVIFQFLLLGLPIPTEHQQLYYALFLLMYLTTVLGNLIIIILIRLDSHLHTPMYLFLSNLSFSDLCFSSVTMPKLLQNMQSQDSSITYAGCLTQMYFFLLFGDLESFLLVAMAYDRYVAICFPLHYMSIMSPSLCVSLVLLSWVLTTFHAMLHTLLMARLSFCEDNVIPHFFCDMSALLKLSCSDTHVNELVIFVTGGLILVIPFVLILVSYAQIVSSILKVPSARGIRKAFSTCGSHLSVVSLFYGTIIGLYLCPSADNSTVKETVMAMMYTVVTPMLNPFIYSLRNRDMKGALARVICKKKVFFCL

Olfr19 = target: T5, Olfr19 (Mus musculus, UniProt Q9JHB2); conditions: Hana3A cells, 10^–9 – 10^–3 M, 4 h, 37°C; agonist
T5 sequence (Q9JHB2 1-309): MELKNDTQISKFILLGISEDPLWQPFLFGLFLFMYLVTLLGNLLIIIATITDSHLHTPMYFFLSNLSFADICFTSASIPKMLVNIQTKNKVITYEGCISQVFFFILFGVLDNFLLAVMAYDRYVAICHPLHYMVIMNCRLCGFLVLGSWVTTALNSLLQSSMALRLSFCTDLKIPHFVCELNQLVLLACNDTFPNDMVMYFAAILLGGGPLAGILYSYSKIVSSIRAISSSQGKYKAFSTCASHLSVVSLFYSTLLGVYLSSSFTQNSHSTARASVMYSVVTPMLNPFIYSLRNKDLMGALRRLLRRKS

SMILES	CRE-luciferase (Dual-Glo) reporter (Olfr376)	CRE-luciferase (Dual-Glo) reporter (Olfr57)	CRE-luciferase (Dual-Glo) reporter (Olfr491)	CRE-luciferase (Dual-Glo) reporter (Olfr20)	EC50 (Olfr19)
CC1=NC(C)SC1C (centres unmarked) [2,5–dihydro–2,4,5–trimethylthiazoline]	Five of these TMT ORs (Olfr20, Olfr30, Olfr57, Olfr376, Olfr491)	Five of these TMT ORs (Olfr20, Olfr30, Olfr57, Olfr376, Olfr491)	Five of these TMT ORs (Olfr20, Olfr30, Olfr57, Olfr376, Olfr491)	Five of these TMT ORs (Olfr20, Olfr30, Olfr57, Olfr376, Olfr491)	–
CC(=O)c1ccccc1 [acetophenone]	–	–	–	–	a newly identified acetophenone OR, Olfr19
